Measured values published in patent publication US20250098679A1, “HERBICIDAL PYRIDONE DERIVATIVES” (SYNGENTA CROP PROTECTION AG, priority 2021, published 2025).

How the values were obtained:
Format in all cases: in vivo
Details in all cases: evaluated after 13 days
Setaria faberi (SETFA) [1] = assay: Pre-emergence Test, Setaria faberi (SETFA)
Zea mays (ZEAMX) [2] = assay: Post-emergence Test, Zea mays (ZEAMX); design: key to percentage damage caused to the plant, ZEAMX (five-point scale): 5=81-100%, 4=61-80%, 3=41-60%, 2=21-40%, 1=0-20% damage
Procedure, shortened: (§1)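 Spray application at 1000 g/ha unless otherwise stated. Damage was scored 13 days later as 1 (0-20%) to 5 (81-100%).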

[3] = tested on: Amaranthus palmeri (AMAPA); assay: Pre-emergence Test, Amaranthus palmeri (AMAPA)
[4] = tested on: Ipomoea hederacea (IPOHE); assay: Pre-emergence Test, Ipomoea hederacea (IPOHE)
[5] = tested on: Echinochloa crus-galli (ECHCG); assay: Pre-emergence Test, Echinochloa crus-galli (ECHCG)
[6] = tested on: Ipomoea hederacea (IPOHE); assay: Post-emergence Test, Ipomoea hederacea (IPOHE); design: key to percentage damage caused to the plant, IPOHE (five-point scale): 5=81-100%, 4=61-80%, 3=41-60%, 2=21-40%, 1=0-20% damage
Procedure, shortened: as §1

[7] = tested on: Amaranthus palmeri (AMAPA); assay: Post-emergence Test, Amaranthus palmeri (AMAPA); design: key: 5=81-100%, 4=61-80%, 3=41-60%, 2=21-40%, 1=0-20% damage
Procedure, shortened: as §1

Setaria faberi (SETFA) [8] = assay: Post-emergence Test, Setaria faberi (SETFA); design: key to percentage damage caused to the plant, SETFA (five-point scale): 5=81-100%, 4=61-80%, 3=41-60%, 2=21-40%, 1=0-20% damage
Procedure, shortened: as §1

[9] = tested on: Echinochloa crus-galli (ECHCG); assay: Post-emergence Test, Echinochloa crus-galli (ECHCG); design: key to percentage damage caused to the plant, ECHCG (five-point scale): 5=81-100%, 4=61-80%, 3=41-60%, 2=21-40%, 1=0-20% damage
Procedure, shortened: as §1

[10] = tested on: Amaranthus retoflexus (AMARE); assay: Post-emergence Test, Amaranthus retoflexus (AMARE); design: key to percentage damage caused to the plant, AMARE (five-point scale): 5=81-100%, 4=61-80%, 3=41-60%, 2=21-40%, 1=0-20% damage
Procedure, shortened: as §1

[11] = tested on: Amaranthus retoflexus (AMARE); assay: Pre-emergence Test, Amaranthus retoflexus (AMARE)
Zea mays (ZEAMX) [12] = assay: Pre-emergence Test, Zea mays (ZEAMX)

Row | SMILES | Pre-emergence Test SETFA, percentage damage caused to the plant (five-point scale) (Setaria faberi (SETFA) [1]; 1000 g/ha) | percentage damage caused to the plant, ZEAMX (five-point scale) (Zea mays (ZEAMX) [2]; 250 g/Ha) | percentage damage caused to the plant, ZEAMX (five-point scale) (Zea mays (ZEAMX) [2]; 1000 g/ha) | Pre-emergence Test AMAPA, percentage damage caused to the plant (five-point scale) ([3]; 1000 g/ha) | Pre-emergence Test IPOHE, percentage damage caused to the plant (five-point scale) ([4]; 1000 g/ha) | Pre-emergence Test ECHCG, percentage damage caused to the plant (five-point scale) ([5]; 1000 g/ha) | percentage damage caused to the plant, IPOHE (five-point scale) ([6]; 250 g/Ha) | percentage damage caused to the plant, IPOHE (five-point scale) ([6]; 1000 g/ha) | percentage damage caused to the plant, AMAPA (five-point scale) ([7]; 250 g/Ha) | percentage damage caused to the plant, AMAPA (five-point scale) ([7]; 1000 g/ha) | percentage damage caused to the plant, SETFA (five-point scale) (Setaria faberi (SETFA) [8]; 250 g/Ha) | percentage damage caused to the plant, SETFA (five-point scale) (Setaria faberi (SETFA) [8]; 1000 g/ha) | percentage damage caused to the plant, ECHCG (five-point scale) ([9]; 250 g/Ha) | percentage damage caused to the plant, ECHCG (five-point scale) ([9]; 1000 g/ha) | percentage damage caused to the plant, AMARE (five-point scale) ([10]; 250 g/Ha) | percentage damage caused to the plant, AMARE (five-point scale) ([10]; 1000 g/ha) | Pre-emergence Test AMARE, percentage damage caused to the plant (five-point scale) ([11]; 1000 g/ha) | Pre-emergence Test ZEAMX, percentage damage caused to the plant (five-point scale) (Zea mays (ZEAMX) [12]; 1000 g/ha) | Pre-emergence Test SETFA, percentage damage caused to the plant (five-point scale) (Setaria faberi (SETFA) [1]; 250 g/Ha (*)) | Pre-emergence Test AMAPA, percentage damage caused to the plant (five-point scale) ([3]; 250 g/Ha (*)) | also measured
1 | COCCn1c(Cn2ccc(C(F)(F)F)n2)cc(=O)c(C(=O)O)c1-c1ccc(Cl)c(Cl)c1 [Compound 170, 2-(3,4-dichlorophenyl)-1-(2-methoxyethyl)-4-oxo-6-[[3-(trifluoromethyl)pyrazol-1-yl]methyl]pyridine-3-carboxylic acid] | 4 (4=61-80%) | 0 | 1 (1=0-20%) | 0 | 2 (2=21-40%) | 3 (3=41-60%) | 3 (3=41-60%) | 3 (3=41-60%) | 0 | 1 (1=0-20%) | 3 (3=41-60%) | 4 (4=61-80%) | 3 (3=41-60%) | 4 (4=61-80%) | 0 | 1 (1=0-20%) | 0 | 0 |  |  | 
2 | CCOC(=O)c1c(-c2ccc(Cl)c(Cl)c2)n(CC)c(Cn2ccc(Cl)n2)c(Br)c1=O [Compound 27, ethyl 5-bromo-6-[(3-chloropyrazo1-1-yl)methyl]-2-(3,4-dichlorophenyl)-1-ethyl-4-oxo-pyridine-3-carboxylate] | 0 |  | 0 | 0 | 0 | 0 |  | 0 |  | 0 |  | 0 |  | 0 |  | 0 | 1 (1=0-20%) | 0 |  |  | 
3 | C=CCOc1ccn(Cc2cc(=O)c(C(=O)O)c(-c3ccc(Cl)c(Cl)c3)n2CC)n1 [Compound 163, 6-[(3-allyloxypyrazol-1-yl)methyl]-2-(3,4-dichlorophenyl)-1-ethyl-4-oxo-pyridine-3-carboxylic acid] | 3 (3=41-60%) |  | 1 (1=0-20%) | 0 | 3 (3=41-60%) | 4 (4=61-80%) |  | 2 (2=21-40%) |  | 1 (1=0-20%) |  | 4 (4=61-80%) |  | 3 (3=41-60%) |  | 1 (1=0-20%) | 0 | 2 (2=21-40%) | 0 | 0 | Pre-emergence Test IPOHE, percentage damage caused to the plant (five-point scale) ([4]; 250 g/Ha (*)): 1 (1=0-20%); Pre-emergence Test ECHCG, percentage damage caused to the plant (five-point scale) ([5]; 250 g/Ha (*)): 1 (1=0-20%); Pre-emergence Test AMARE, percentage damage caused to the plant (five-point scale) ([11]; 250 g/Ha (*)): 0; Pre-emergence Test ZEAMX, percentage damage caused to the plant (five-point scale) (Zea mays (ZEAMX) [12]; 250 g/Ha (*)): 0
4 | CCOC(=O)c1c(-c2ccc(Cl)c(Cl)c2)n(CC)c(Cn2cc(F)cn2)cc1=O [Compound 8, ethyl 2-(3,4-dichlorophenyl)-1-ethyl-6-[(4-fluoropyrazol-1-yl)methyl]-4-oxo-pyridine-3-carboxylate] | 1 (1=0-20%) |  | 1 (1=0-20%) | 0 | 1 (1=0-20%) | 3 (3=41-60%) |  | 1 (1=0-20%) |  | 1 (1=0-20%) |  | 4 (4=61-80%) |  | 1 (1=0-20%) |  | 1 (1=0-20%) | 0 | 0 |  |  | 
5 | CCn1c(Cn2cc(C(F)(F)F)cn2)cc(=O)c(C(=O)O)c1-c1ccc(Cl)c(Cl)c1 [Compound 6, 2-(3,4-dichlorophenyl)-1-ethyl-4-oxo-6-[[4-(trifluoromethyl)pyrazol-1-yl]methyl]pyridine-3-carboxylic acid] | 4 (4=61-80%) | 0 | 4 (4=61-80%) |  | 2 (2=21-40%) | 3 (3=41-60%) | 1 (1=0-20%) | 1 (1=0-20%) | 0 | 2 (2=21-40%) | 0 | 4 (4=61-80%) | 3 (3=41-60%) | 4 (4=61-80%) | 1 (1=0-20%) | 0 | 0 | 0 | 2 (2=21-40%) | 1 (1=0-20%) | Pre-emergence Test IPOHE, percentage damage caused to the plant (five-point scale) ([4]; 250 g/Ha (*)): 1 (1=0-20%); Pre-emergence Test ECHCG, percentage damage caused to the plant (five-point scale) ([5]; 250 g/Ha (*)): 3 (3=41-60%); Pre-emergence Test AMARE, percentage damage caused to the plant (five-point scale) ([11]; 250 g/Ha (*)): 0; Pre-emergence Test ZEAMX, percentage damage caused to the plant (five-point scale) (Zea mays (ZEAMX) [12]; 250 g/Ha (*)): 0
6 | CCn1c(Cn2cc(F)cn2)cc(=O)c(C(=O)O)c1-c1ccc(Cl)c(Cl)c1 [Compound 9, 2-(3,4-dichlorophenyl)-1-ethyl-6-[(4-fluoropyrazol-1-yl)methyl]-4-oxo-pyridine-3-carboxylic acid] | 5 (5=81-100%) | 0 | 2 (2=21-40%) | 2 (2=21-40%) | 0 | 5 (5=81-100%) | 3 (3=41-60%) | 1 (1=0-20%) | 0 | 1 (1=0-20%) | 4 (4=61-80%) | 3 (3=41-60%) | 3 (3=41-60%) | 4 (4=61-80%) | 0 | 0 | 1 (1=0-20%) | 0 | 5 (5=81-100%) | 1 (1=0-20%) | Pre-emergence Test IPOHE, percentage damage caused to the plant (five-point scale) ([4]; 250 g/Ha (*)): 1 (1=0-20%); Pre-emergence Test ECHCG, percentage damage caused to the plant (five-point scale) ([5]; 250 g/Ha (*)): 5 (5=81-100%); Pre-emergence Test AMARE, percentage damage caused to the plant (five-point scale) ([11]; 250 g/Ha (*)): 0; Pre-emergence Test ZEAMX, percentage damage caused to the plant (five-point scale) (Zea mays (ZEAMX) [12]; 250 g/Ha (*)): 0
